Laboratory results published in ChEMBL document CHEMBL3853303, “Nazumazoles D-F, Cyclic Pentapeptides That Inhibit Chymotrypsin, from the Marine Sponge Theonella swinhoei” (J Nat Prod, 2016).

Assay: Inhibition of bovine alpha-chymotrypsin using Suc-Leu-Leu-Val-Tyr 4-methylcoumaryl-7-amide as substrate assessed as formation of MCA after 1 hr by fluorometric method
Design: species or system Bos taurus

SMILES | IC50 [µM]
CCC[C@@H]1NC(=O)[C@@H]2C[C@H](C)CN2C(=O)[C@@H](NC=O)CNC(=O)[C@@H](CC)NC(=O)c2coc(n2)[C@H](C)NC(=O)C1=O | 2
CCC[C@@H]1NC(=O)[C@@H]2C[C@H](C)CN2C(=O)[C@@H](NC=O)CNC(=O)[C@@H](CO)NC(=O)c2coc(n2)[C@H](C)NC(=O)C1=O | 3
CC(C)C[C@@H]1NC(=O)[C@@H]2C[C@H](C)CN2C(=O)[C@@H](NC=O)CNC(=O)[C@@H](CO)NC(=O)c2coc(n2)[C@H](C)NC(=O)C1=O | 10
